Reference: US8829007B2 (priority 2009, dated 2014)

Each molecule was assayed on influenza A virus (A/PR/8/34) (assay: microbe, parasite or virus in culture). Conditions: Influenza A virus, PR/8, MDCK, MDCK cells infected with A/PR/8/34, cell protection (CPE); read-out: IC50 (mean all).
Format: cell-based
In the case of `O=C(c1ccccc1)N1CCCC[C@H]1CNc1nc(-c2c[nH]c3ncccc23)ncc1F` [Compound 259, (S)-(2-((5-fluoro-2-(1H-pyrrolo[2,3-b]pyridin-3-yl)pyrimidin-4-ylamino)methyl)piperidin-1-yl)(phenyl)methanone], the IC50 is reported as 5 to 20 µM.
`COc1ccccc1C(=O)N1CCCC[C@H]1CNc1nc(-c2c[nH]c3ncccc23)ncc1F` [Compound 260, (S)-(2-((5-fluoro-2-(1H-pyrrolo[2,3-b]pyridin-3-yl)pyrimidin-4-ylamino)methyl)piperidin-1-yl)(2-methoxyphenyl)methanone] was tested, and the IC50 was over 20 µM.
Molecule `CC(=O)N1CCC[C@H](CNc2nc(-c3c[nH]c4ncccc34)ncc2F)C1` [Compound 268, (R)-1-(3-((5-fluoro-2-(1H-pyrrolo[2,3-b]pyridin-3-yl)pyrimidin-4-ylamino)methyl)piperidin-1-yl)ethanone] has an IC50 of 5 to 20 µM.
Work on `CCCC(=O)N1CCC[C@H](CNc2nc(-c3c[nH]c4ncccc34)ncc2F)C1` [Compound 270, (R)-1-(3-((5-fluoro-2-(1H-pyrrolo[2,3-b]pyridin-3-yl)pyrimidin-4-ylamino)methyl)piperidin-1-yl)butan-1-one] yielded an IC50 of 5 to 20 µM.
In the case of `O=C(c1ccccc1)N1CCC[C@H](CNc2nc(-c3c[nH]c4ncccc34)ncc2F)C1` [Compound 271, (R)-(3-((5-fluoro-2-(1H-pyrrolo[2,3-b]pyridin-3-yl)pyrimidin-4-ylamino)methyl)piperidin-1-yl)(phenyl)methanone], the IC50 is reported as 5 to 20 µM.
In the case of `COc1ccccc1C(=O)N1CCC[C@H](CNc2nc(-c3c[nH]c4ncccc34)ncc2F)C1` [Compound 272, (R)-(3-((5-fluoro-2-(1H-pyrrolo[2,3-b]pyridin-3-yl)pyrimidin-4-ylamino)methyl)piperidin-1-yl)(2-methoxyphenyl)methanone], the IC50 is reported as over 20 µM.
For `CNC(=O)N1CCC[C@H](CNc2nc(-c3c[nH]c4ncccc34)ncc2F)C1` [Compound 274], the IC50 was 5 to 20 µM.
Molecule `CCNC(=O)N1CCC[C@H](CNc2nc(-c3c[nH]c4ncccc34)ncc2F)C1` [Compound 275, (R)—N-ethyl-3-((5-fluoro-2-(1H-pyrrolo[2,3-b]pyridin-3-yl)pyrimidin-4-ylamino)methyl)piperidine-1-carboxamide] has an IC50 of 5 to 20 µM.
For `CCCNC(=O)N1CCC[C@H](CNc2nc(-c3c[nH]c4ncccc34)ncc2F)C1` [Compound 276], the IC50 was over 20 µM.
Work on `O=C(CCCCl)N1CCCC[C@@H]1CNc1nc(-c2c[nH]c3ncc(Cl)cc23)ncc1F` [Compound 278, (R)-4-chloro-1-(2-((2-(5-chloro-1H-pyrrolo[2,3-b]pyridin-3-yl)-5-fluoropyrimidin-4-ylamino)methyl)piperidin-1-yl)butan-1-one] yielded an IC50 of over 20 µM.
In the case of `O=C(CC1CCCCC1)N1CCCC[C@@H]1CNc1nc(-c2c[nH]c3ncc(Cl)cc23)ncc1F` [Compound 294, (R)-1-(2-((2-(5-chloro-1H-pyrrolo[2,3-b]pyridin-3-yl)-5-fluoropyrimidin-4-ylamino)methyl)piperidin-1-yl)-2-cyclohexylethanone], the IC50 is reported as over 20 µM.

Same assay, conditions: Influenza A virus, PR/8, MDCK, mean all; A/PR/8/34 infected MDCK cells, CPE assay; read-out: IC50
Work on `CCCS(=O)(=O)N1CCCC[C@@H]1CNc1nc(-c2c[nH]c3ncc(Cl)cc23)ncc1F` [Compound 328, (R)-2-(5-chloro-1H-pyrrolo[2,3-b]pyridin-3-yl)-5-fluoro-N-((1-(propylsulfonyl)piperidin-2-yl)methyl)pyrimidin-4-amine] yielded an IC50 of over 20 µM.
`CCCCS(=O)(=O)N1CCCC[C@@H]1CNc1nc(-c2c[nH]c3ncc(Cl)cc23)ncc1F` [Compound 329, (R)—N-((1-(butylsulfonyl)piperidin-2-yl)methyl)-2-(5-chloro-1H-pyrrolo[2,3-b]pyridin-3-yl)-5-fluoropyrimidin-4-amine] showed an IC50 of over 20 µM.
Molecule `CC(=O)N[C@@H]1CCCC[C@H]1Nc1nc(-c2c[nH]c3ncccc23)ncc1F` [Compound 348, N-[(1R,2R)-2-[[5-fluoro-2-(1H-pyrrolo[2,3-b]pyridin-3-yl)pyrimidin-4-yl]amino]cyclohexyl]acetamide] has an IC50 of over 20 µM.
Molecule `O=C(N[C@@H]1CCCC[C@H]1Nc1nc(-c2c[nH]c3ncc(Cl)cc23)ncc1F)C1CCCC1` [Compound 351, N-[(1R,2R)-2-[[2-(5-chloro-1H-pyrrolo[2,3-b]pyridin-3-yl)-5-fluoro-pyrimidin-4-yl]amino]cyclohexyl]cyclopentanecarboxamide] has an IC50 of over 20 µM.
`O=C(N[C@@H]1CCCC[C@H]1Nc1nc(-c2c[nH]c3ncc(Cl)cc23)ncc1F)c1ccccc1` [Compound 352, N-[(1R,2R)-2-[[2-(5-chloro-1H-pyrrolo[2,3-b]pyridin-3-yl)-5-fluoro-pyrimidin-4-yl]amino]cyclohexyl]benzamide] showed an IC50 of over 20 µM.
Molecule `CS(=O)(=O)N[C@@H]1CCCC[C@H]1Nc1nc(-c2c[nH]c3ncc(Cl)cc23)ncc1F` [Compound 353, N-[(1R,2R)-2-[[2-(5-chloro-1H-pyrrolo[2,3-b]pyridin-3-yl)-5-fluoro-pyrimidin-4-yl]amino]cyclohexyl]methanesulfonamide] has an IC50 of over 20 µM.
For `CCCS(=O)(=O)N[C@@H]1CCCC[C@H]1Nc1nc(-c2c[nH]c3ncc(Cl)cc23)ncc1F` [Compound 354, N-[(1R,2R)-2-[[2-(5-chloro-1H-pyrrolo[2,3-b]pyridin-3-yl)-5-fluoro-pyrimidin-4-yl]amino]cyclohexyl]propane-1-sulfonamide], the IC50 was over 20 µM.
`CCCNC(=O)N[C@@H]1CCCC[C@H]1Nc1nc(-c2c[nH]c3ncc(Cl)cc23)ncc1F` [Compound 355, 1-[(1R,2R)-2-[[2-(5-chloro-1H-pyrrolo[2,3-b]pyridin-3-yl)-5-fluoro-pyrimidin-4-yl]amino]cyclohexyl]-3-propyl-urea] gave an IC50 of over 20 µM.
In the case of `CCC(=O)N[C@@H]1CCCC[C@H]1Nc1nc(-c2c[nH]c3ncccc23)ncc1F` [Compound 356, N-[(1R,2R)-2-[[5-fluoro-2-(1H-pyrrolo[2,3-b]pyridin-3-yl)pyrimidin-4-yl]amino]cyclohexyl]propanamide], the IC50 is reported as over 20 µM.
Work on `CCCC(=O)N[C@@H]1CCCC[C@H]1Nc1nc(-c2c[nH]c3ncccc23)ncc1F` [Compound 358, N-[(1R,2R)-2-[[5-fluoro-2-(1H-pyrrolo[2,3-b]pyridin-3-yl)pyrimidin-4-yl]amino]cyclohexyl]butanamide] yielded an IC50 of over 20 µM.
`O=C(N[C@@H]1CCCC[C@H]1Nc1nc(-c2c[nH]c3ncccc23)ncc1F)C1CCCC1` [Compound 359, N-[(1R,2R)-2-[[5-fluoro-2-(1H-pyrrolo[2,3-b]pyridin-3-yl)pyrimidin-4-yl]amino]cyclohexyl]cyclopentanecarboxamide] was tested, and the IC50 was over 20 µM.
With `O=C(N[C@@H]1CCCC[C@H]1Nc1nc(-c2c[nH]c3ncccc23)ncc1F)c1ccccc1` [Compound 360, N-[(1R,2R)-2-[[5-fluoro-2-(1H-pyrrolo[2,3-b]pyridin-3-yl)pyrimidin-4-yl]amino]cyclohexyl]benzamide] the IC50 was over 20 µM.
`CS(=O)(=O)N[C@@H]1CCCC[C@H]1Nc1nc(-c2c[nH]c3ncccc23)ncc1F` [Compound 361, N-[(1R,2R)-2-[[5-fluoro-2-(1H-pyrrolo[2,3-b]pyridin-3-yl)pyrimidin-4-yl]amino]cyclohexyl]methanesulfonamide] showed an IC50 of over 20 µM.
In the case of `CCCS(=O)(=O)N[C@@H]1CCCC[C@H]1Nc1nc(-c2c[nH]c3ncccc23)ncc1F` [Compound 362, N-[(1R,2R)-2-[[5-fluoro-2-(1H-pyrrolo[2,3-b]pyridin-3-yl)pyrimidin-4-yl]amino]cyclohexyl]propane-1-sulfonamide], the IC50 is reported as over 20 µM.
For `O=C(NC1CCCCC1Nc1nc(-c2c[nH]c3ncc(Cl)cc23)ncc1F)C1CCCC1` (stereo not drawn) [Compound 364, N-[(trans-2-[[2-(5-chloro-1H-pyrrolo[2,3-b]pyridin-3-yl)-5-fluoro-pyrimidin-4-yl]amino]cyclohexyl]cyclopentanecarboxamide], the IC50 was over 20 µM.
Molecule `CCCC(=O)N[C@@H]1CCCC[C@H]1Nc1nc(-c2c[nH]c3ncc(Cl)cc23)ncc1F` [Compound 369, N-[(1R,2R)-2-[[2-(5-chloro-1H-pyrrolo[2,3-b]pyridin-3-yl)-5-fluoro-pyrimidin-4-yl]amino]cyclohexyl]butanamide] has an IC50 of over 20 µM.
For `CCCNC(=O)N[C@@H]1CCCC[C@H]1Nc1nc(-c2c[nH]c3ncccc23)ncc1F` [Compound 370, 1-[(1R,2R)-2-[[5-fluoro-2-(1H-pyrrolo[2,3-b]pyridin-3-yl)pyrimidin-4-yl]amino]cyclohexyl]-3-propyl-urea], the IC50 was over 20 µM.
With `CC(C)NC(=O)N1CCCC[C@@H]1CNc1nc(-c2c[nH]c3ncccc23)ncc1F` [Compound 371] the IC50 was over 20 µM.
In the case of `CNC(=O)N1CCCC[C@@H]1CNc1nc(-c2c[nH]c3ncccc23)ncc1F` [Compound 374, (R)-2-((5-fluoro-2-(1H-pyrrolo[2,3-b]pyridin-3-yl)pyrimidin-4-ylamino)methyl)-N-methylpiperidine-1-carboxamide], the IC50 is reported as over 20 µM.
`O=C1NCCC1Nc1nc(-c2c[nH]c3ncc(Cl)cc23)ncc1F` (centres unmarked) [Compound 380] gave an IC50 of 5 to 20 µM.
With `CS(=O)(=O)N1CCCC[C@H]1CNc1nc(-c2c[nH]c3ncc(Cl)cc23)ncc1F` [Compound 384, (S)-2-(5-chloro-1H-pyrrolo[2,3-b]pyridin-3-yl)-5-fluoro-N-((1-(methylsulfonyl)-piperidin-2-yl)methyl)pyrimidin-4-amine] the IC50 was under 5 µM.
`O=S(=O)(C1CC1)N1CCCC[C@H]1CNc1nc(-c2c[nH]c3ncc(Cl)cc23)ncc1F` [Compound 386, (S)-2-(5-chloro-1H-pyrrolo[2,3-b]pyridin-3-yl)-5-fluoro-N-((1-(cyclopropylsulfonyl)-piperidin-2-yl)methyl)pyrimidin-4-amine] was tested, and the IC50 was under 5 µM.

Same assay, conditions: Influenza A virus, PR/8, MDCK; read-out: IC50 (mean all)
Work on `CCC(=O)N1CCCC(CNc2nc(-c3c[nH]c4ncccc34)ncc2F)C1` (centres unmarked) [Compound 269] yielded an IC50 of 5 to 20 µM.

Same assay, conditions: mean all; A/PR/8/34 infected MDCK cells, CPE assay; read-out: IC50
`CN1CCC(Nc2nc(-c3c[nH]c4ncccc34)ncc2F)C1=O` (centres unmarked) [Compound 376] gave an IC50 of 5 to 20 µM.
With `O=C1NCCC1Nc1nc(-c2c[nH]c3ncccc23)ncc1F` (centres unmarked) [Compound 377] the IC50 was over 20 µM.
In the case of `O=C1CCC(CNc2nc(-c3c[nH]c4ncc(Cl)cc34)ncc2F)CN1` (centres unmarked) [Compound 378], the IC50 is reported as over 20 µM.
Work on `O=S(=O)(CC(F)(F)F)N1CCCC[C@@H]1CNc1nc(-c2c[nH]c3ncc(Cl)cc23)ncc1F` [Compound 387] yielded an IC50 of 5 to 20 µM.
